According to US5143923A, “Benzoisothiazole- and benziosoxazole-3-carboxamides” (Hoechst-Roussel Pharmaceuticals Inc., priority 1991, dated 1992):
Counter-ions that a name gives are not always drawn. Like-named read-outs stand apart in the source and are kept apart here.

How the values were obtained:
[1] = test system: apomorphine induced stereotypy; assay: Inhibition of apomorphine induced stereotypy assay (extrapyramidal side effect potential); assay type: in vivo, male Wistar rats
Method: Potential for undersible extrapyramidal side effect activity is determined in the inhibition of apormorphine stereotypy assay by methods similar to those described by N. E. Anden, et al., J. Pharma.
Drugs are prepared using distilled water and, if insoluble, a suitable surfactant is added. The route of administration may be varied and the dosage volume is 10 ml/kg. For a primary screen, a group size of six is used. Drug is administered one hour prior to scoring and the animals are placed in individual clear plastic cages (24×14×13 cm). The control group receives vehicle. Apomorphine hydrochloride solution is prepared at a concentration of 15 mg/10 ml in a 0.03% ascorbic acid stock solution (30 mg of ascorbic acid in 100 ml of 1% saline) to increase the stability of the apomorphine hydrochloride while in solution. […] Fifty minutes after drug dosing, stereotypic behavior is noted. Stereotypic activity is defined as sniffing, licking or chewing behavior that occurs in a repetitive manner and is rated as follows: Constant sniffing, licking or chewing without interruption; the animal is considered protected if this behavior is interrupted.
The percent effectiveness of a drug is determined by the number of animals protected in each group.
A dose-response is run in the same manner as a primary screen except that a group size of 10 is used and the animals are dosed in a randomized manner. One group receives vehicle. ED50 for stereotypy are calculated by means of probit analysis.

[2] = test system: apomorphine-induced climbing; assay: Inhibition of apomorphine-induced climbing, climbing mice assay (antipsychotic activity); assay type: in vivo, CK-1 male mice; conditions: for ED50: Mus musculus, ip, read-out: Antipsychotic Activity ED50
Method: The subject CK-1 male mice (23-27 grams) are group-housed under standard laboratory conditions. The mice are individually placed in wire mesh stick cages (4"×4"10") and are allowed one hour for adaptation and exploration of the new environment.
For evaluation of climbing, 3 readings are taken at 10, 20 and 30 minutes after apomorphine administration according to the following scale: […]
Mice consistently climbing before the injection of apormorphine are discarded.
With full-developed apomorphine climbing, the animals are hanging onto the cage walls, rather motionless, over longer periods of time. By contrast, climbs due to mere motor stimulation usually only last a few seconds.
The climbing scores are individually totaled (maximal score; 6 per mouse over 3 readings) and the total score of the control group (vehicle intraperitioneally-apomorphine subcutaneously) is set to 100%.

[3] = Rattus norvegicus, read-out: % Inhibition of apomorphine induced stereotypy
[4] = mice, compound intraperitoneally 30 min before apomorphine 1.5 mg/kg s.c.

Question: How did the inhibition at 40 mg/kg [1, 3] turn out when `CN(CCCCN1CCN(c2nsc3ccccc23)CC1)C(=O)c1nsc2ccccc12` [N-Methyl-N-[4-(1-(1,2-benzisothiazol-3-yl)-4-piperazinyl)butyl]-1,2-benzisothiazole-3-carboxamide hydrochloride] was run?
Answer: 100%

Question: Which ED50 [2] does the source give for `CN(CCCCN1CCN(c2csc3cc(F)ccc23)CC1)C(=O)c1nsc2ccccc12.Cl` [N-Methyl-N-[4-(1-(6-fluorobenzo[b]thiophen-3-yl)-4-piperazinyl)butyl]-1,2-benzisothiazol-3-carboxamide hydrochloride] here?
Answer: 4.5 mg/kg

Question: What about the inhibition at 40 mg/kg [1, 3] of the same compound?
Answer: 100%

Question: Which ED50 [2] does the source give for `CN(CCCCN1CCN(c2csc3cc(F)ccc23)CC1)C(=O)c1noc2ccccc12.Cl` [N-Methyl-N-[4-(1-(6-fluorobenzo[b]thiophen-3-yl)-4-piperazinyl)butyl]-1,2-benzisoxazole-3-carboxamide hydrochloride] here?
Answer: 5 mg/kg

Question: And the inhibition at 52 mg/kg [1, 3]?
Answer: 50%

Question: How did the ED50 [2] turn out when `Cl.O=C(NCCN1CCN(c2csc3cc(F)ccc23)CC1)c1noc2ccccc12` [N-[2-(1-(6-fluorobenzo[b]thiophen-3-yl)-4-piperazinyl)ethyl]-1,2-benzisoxazole-3-carboxamide hydrochloride] was run?
Answer: 4.9 mg/kg

Question: And the inhibition at 80 mg/kg [1, 3]?
Answer: 0%

Question: Which results are given for `COc1ccccc1N1CCN(CCNC(=O)c2nsc3ccccc23)CC1.Cl.Cl` [N-[2-(1-(2-Methoxyphenyl)-4-piperazinyl)ethyl]-1,2-benzisothiazole-3-carboxamide dihydrochloride]?
Answer: ED50 [2]: 6.3 mg/kg; inhibition at 51.8 mg/kg [1, 3]: 50%

Question: How did the ED50 [2, 4] turn out when `CCN1CCCC1CNC(=O)c1cc(S(N)(=O)=O)ccc1OC` (centres unmarked) [Sulpiride, reference compound] was run?
Answer: 4.5 mg/kg

Question: With `COc1ccccc1N1CCN(CCCCN(C)C(=O)c2nsc3ccccc23)CC1` [N-Methyl-N-[4-(1-(2-methoxyphenyl)-4-piperazinyl)butyl]-1,2-benzisothiazole-3-carboxamide dihydrochloride hemihydrate] as the compound, how does the “Antipsychotic Activity ED50” value ([2]; mice, compound intraperitoneally 30 min before apomorphine 1.5 mg/kg s.c., dihydrochloride hemihydrate) read?
Answer: 4.2 mg/kg

Question: What about the “Antipsychotic Activity ED50” value ([2]; mice, compound intraperitoneally 30 min before apomorphine 1.5 mg/kg s.c., listed as N-methyl-N-[4-(1-(2-methoxyphenyl)-4-piperazinyl)butyl-1,2-benzisothiazole-3-car, dihydrochloride hemihydrate) of the same compound?
Answer: 9.6 mg/kg

Question: What about the inhibition at 39.2 mg/kg ([1]; Rattus norvegicus, rats, dose 39.2 mg/kg body wt.) of the same compound?
Answer: 50%

Question: With `O=C(CCCN1CCC(O)(c2ccc(Cl)cc2)CC1)c1ccc(F)cc1` [Haloperidol, reference compound] as the compound, how does the ED50 [2] read?
Answer: 0.11 mg/kg

Question: And the inhibition at 0.2 mg/kg [1, 3]?
Answer: 50%

Question: With `Cl.O=C(NCCCCN1CCN(c2nsc3ccccc23)CC1)c1nsc2ccccc12` [N-[4-(1-(1,2-Benzisothiazol-3-yl)-4-piperazinyl)butyl]-1,2-benzisothiazole-3-carboxamide hydrochloride] as the compound, how does the ED50 [2] read?
Answer: 8.3 mg/kg

Question: And the inhibition at 40 mg/kg [1, 3]?
Answer: 17%

Question: `CSc1ccc2c(c1)N(CCC1CCCCN1C)c1ccccc1S2` (centres unmarked) [thioridazine, reference compound] was tested. Which inhibition at 16 mg/kg ([1]; Rattus norvegicus, rats, dose 16 mg/kg body wt.) did it give?
Answer: 50%

Question: What does the source list for “N-[2-(1-(4-Fluorobenzoyl)-4-piperidinyl)ethyl]-1,2-benzisothiazole-3-carboxamide hydrochloride hemihydrate”?
Answer: Antipsychotic Activity ED50 [2, 4]: 3.6 mg/kg; % Inhibition of apomorphine induced stereotypy ([1]; rats, dose 20 mg/kg body wt.): 67%
